In paper PMC7898037, “Improving mitochondria and ER stability helps eliminate upper motor neuron degeneration that occurs due to mSOD1 toxicity and TDP‐43 pathology” (Clinical and Translational Medicine, 2021):
Where “and” joins values, the source holds several entries; their conditions need not be identical. Equal entries are not always repeated.

Legend:
[1] = system: UMN apical dendrites of WT‐UeGFP mice; assay: UMN apical dendrites with vacuoles, WT‐UeGFP mice; type: in vivo
Description: (§1) hSOD1^G93A‐UeGFP, prpTDP‐43^A315T‐UeGFP and WT‐UeGFP mice were weighed and the required NU‐9 dose per weight was calculated (20 or 100 mg/kg), which was administered once daily by oral gavage, starting at postnatal day (P)60 and continuing until P120. Animals from the untreated group received the vehicle (NMP and olive oil) only. For oral administration purposes, 20 ga × 38 mm plastic feeding tubes were used (Instech Laboratories, Inc). The gavage tip was inserted into the mouth directly over the tongue and into the pharynx. While observing the swallowing reflex, the tip was safely and smoothly slid into the esophagus. Once the administration was completed, the gavage tip was pulled straight out.
Mice were deeply anesthetized using ketamine (90 mg/kg) with xylazine (10 mg/kg), and transcardially perfused with 4% PFA in PBS. The brains were removed intact and postfixed (4% PFA, overnight) and stored in PBS with sodium azide (0.01%) at 4°C. Sections were cut in a coronal (50 µm) plane using a vibratome (Leica) and processed for immunocytochemical analyses.
The antibodies used are as follows: anti‐GFP (1:1000, Invitrogen; or 1:1000, Abcam) and anti‐misfolded SOD1 (B8H10, 1:250, Médimabs). Briefly, sections were treated with blocking solution (PBS, 0.05% BSA, 2% FBS, 1% Triton X‐100, and 0.1% saponin) for 30 min at room temperature and incubated with primary antibody diluted in blocking solution overnight at 4°C. Appropriate secondary fluorescent antibodies (1:500, AlexaFluor‐conjugated, Invitrogen) were added to the blocking solution at room temperature for 2 h in the dark.

[2] = system: hSOD1^G93A‐UeGFP mice; assay: Rotarod test, hSOD1^G93A‐UeGFP mice; type: in vivo; parameters: Rotarod, Mean Diff. (vehicle minus NU-9) / Rotarod, mean difference GS vehicle vs. GS NU-9 (20) / Rotarod, mean difference GS vehicle vs. GS NU-9 (100): unit not given here; details: for Rotarod, group mean (Mean 1 / Mean 2 of 2way ANOVA multiple comparisons) / Rotarod, mean difference GS vehicle vs. GS NU-9 (20) / Rotarod, mean difference GS vehicle vs. GS NU-9 (100): GS (hSOD1G93A-UeGFP); for Rotarod, mean difference GS vehicle vs. GS NU-9 (20): vehicle minus NU-9 (20); for Rotarod, mean difference GS vehicle vs. GS NU-9 (100): vehicle minus NU-9 (100); for Rotarod, group mean (Mean 1 / Mean 2) / Rotarod, Mean Diff. (vehicle minus NU-9): hSOD1G93A-UeGFP mice; for Rotarod, Average: hSOD1G93A-UeGFP
Description: as §1
Behavior data were collected from hSOD1^G93A‐UeGFP and WT‐UeGFP mice (starting at P60 and every 7 days until P116) and from prpTDP‐43^A315T‐UeGFP mice (at P60, P90, and P120) with the following number of mice for each group: WT‐UeGFP vehicle (n = 10), hSOD1^G93A‐UeGFP vehicle (n = 6), WT‐UeGFP 20 mg/kg/day NU‐9 (n = 5), hSOD1^G93A‐UeGFP 20 mg/kg/day NU‐9 (n = 7), WT‐UeGFP 100 mg/kg/day NU‐9 (n = 11), hSOD1^G93A‐UeGFP 100 mg/kg/day NU‐9 (n = 9), prpTDP‐43^A315T‐UeGFP untreated (n ≥ 3), and prpTDP‐43^A315T‐UeGFP 100 mg/kg/day NU‐9 (n = 4) (Table S3).
Mice were placed on a rotating rod that accelerates linearly from 4 to 40 rpm (Rotarod, Ugo Basile), and the average time spent on the rotating rod for three consecutive trials was calculated for each mouse. Mice were allowed to run for a maximum of 5 min with a 5 min rest period between each run, and the latency to fall was recorded for three consecutive trials. The average of the three trials was taken as the data point for each mouse at the age tested, and the performance of different groups are reported as the mean ± SEM.

[3] = parameters: method as in PMID 22189273, PMID 22837812; details: cited from earlier work
[4] = WT-UeGFP mice, NU-9 100 mg/kg/day

C[C@H](Oc1cc(C(F)(F)F)cc(C(F)(F)F)c1)C1CC(=O)CC(=O)C1 [NU‐9]
Mean, Fig. 4G (UMN apical dendrites with vacuoles) [1, 4]: 16.43
Mean, Fig. 7E (UMN apical dendrites with vacuoles) [1, 4]: 16.43
Mean Diff., Fig. 7E, G vehicle vs. G NU-9 (100) ([1]; WT-UeGFP vehicle minus NU-9 100 mg/kg/day, Tukey's multiple comparisons test): 17.11
Mean Diff., Fig. 4G, G Vehicle vs. G NU-9 (100) ([1]; WT-UeGFP vehicle minus WT-UeGFP NU-9 100 mg/kg/day, Tukey's multiple comparisons test): 11.77
percentage of UMN apical dendrites with vacuoles ([1]; WT‐UeGFP mice, 100 mg/kg/day oral gavage P60–P120): 16% ± 5%
Rotarod, group mean (Mean 1 / Mean 2 of 2way ANOVA multiple comparisons) ([2]; NU-9 (20), P102): 158.8
Rotarod, group mean (Mean 1 / Mean 2 of 2way ANOVA multiple comparisons) ([2]; NU-9 (20), P109): 149.1
Rotarod, group mean (Mean 1 / Mean 2 of 2way ANOVA multiple comparisons) ([2]; NU-9 (20), P116): 107.7
Rotarod, group mean (Mean 1 / Mean 2 of 2way ANOVA multiple comparisons) ([2]; NU-9 (100), P102): 170
Rotarod, group mean (Mean 1 / Mean 2 of 2way ANOVA multiple comparisons) ([2]; NU-9 (100), P109): 151.3
Rotarod, group mean (Mean 1 / Mean 2 of 2way ANOVA multiple comparisons) ([2]; NU-9 (100), P116): 128.5
Rotarod, mean difference GS vehicle vs. GS NU-9 (20) ([2]; P102): 22.8
Rotarod, mean difference GS vehicle vs. GS NU-9 (20) ([2]; P109): 18.74
Rotarod, mean difference GS vehicle vs. GS NU-9 (20) ([2]; P116): 14.44
Rotarod, mean difference GS vehicle vs. GS NU-9 (100) ([2]; P102): 11.61
Rotarod, mean difference GS vehicle vs. GS NU-9 (100) ([2]; P109): 16.57
Rotarod, mean difference GS vehicle vs. GS NU-9 (100) ([2]; P116): -6.407
Rotarod, group mean (Mean 1 / Mean 2) ([2]; NU-9 20 mg/kg/day, P60): 221.3
Rotarod, group mean (Mean 1 / Mean 2) ([2]; NU-9 20 mg/kg/day, P67): 221.6
Rotarod, group mean (Mean 1 / Mean 2) ([2]; NU-9 20 mg/kg/day, P74): 213.6
Rotarod, group mean (Mean 1 / Mean 2) ([2]; NU-9 20 mg/kg/day, P81): 207.4
Rotarod, group mean (Mean 1 / Mean 2) ([2]; NU-9 20 mg/kg/day, P88): 209.5
Rotarod, group mean (Mean 1 / Mean 2) ([2]; NU-9 20 mg/kg/day, P95): 178.8
Rotarod, group mean (Mean 1 / Mean 2) ([2]; NU-9 100 mg/kg/day, P60): 206.8
Rotarod, group mean (Mean 1 / Mean 2) ([2]; NU-9 100 mg/kg/day, P67): 223.1
Rotarod, group mean (Mean 1 / Mean 2) ([2]; NU-9 100 mg/kg/day, P74): 224
Rotarod, group mean (Mean 1 / Mean 2) ([2]; NU-9 100 mg/kg/day, P81): 223.4
Rotarod, group mean (Mean 1 / Mean 2) ([2]; NU-9 100 mg/kg/day, P88): 203.8
Rotarod, group mean (Mean 1 / Mean 2) ([2]; NU-9 100 mg/kg/day, P95): 191
Rotarod, Mean Diff. (vehicle minus NU-9) ([2]; vehicle vs. NU-9 20 mg/kg/day, P60): -28.22
Rotarod, Mean Diff. (vehicle minus NU-9) ([2]; vehicle vs. NU-9 20 mg/kg/day, P67): 4.159
Rotarod, Mean Diff. (vehicle minus NU-9) ([2]; vehicle vs. NU-9 20 mg/kg/day, P74): 4.103
Rotarod, Mean Diff. (vehicle minus NU-9) ([2]; vehicle vs. NU-9 20 mg/kg/day, P81): -5.651
Rotarod, Mean Diff. (vehicle minus NU-9) ([2]; vehicle vs. NU-9 20 mg/kg/day, P88): -17.41
Rotarod, Mean Diff. (vehicle minus NU-9) ([2]; vehicle vs. NU-9 20 mg/kg/day, P95): 23.52
Rotarod, Mean Diff. (vehicle minus NU-9) ([2]; vehicle vs. NU-9 20 mg/kg/day, P102): 22.8
Rotarod, Mean Diff. (vehicle minus NU-9) ([2]; vehicle vs. NU-9 20 mg/kg/day, P109): 18.74
Rotarod, Mean Diff. (vehicle minus NU-9) ([2]; vehicle vs. NU-9 20 mg/kg/day, P116): 14.44
Rotarod, Mean Diff. (vehicle minus NU-9) ([2]; vehicle vs. NU-9 100 mg/kg/day, P60): -13.7
Rotarod, Mean Diff. (vehicle minus NU-9) ([2]; vehicle vs. NU-9 100 mg/kg/day, P67): 2.704
Rotarod, Mean Diff. (vehicle minus NU-9) ([2]; vehicle vs. NU-9 100 mg/kg/day, P74): -6.241
Rotarod, Mean Diff. (vehicle minus NU-9) ([2]; vehicle vs. NU-9 100 mg/kg/day, P81): -21.67
Rotarod, Mean Diff. (vehicle minus NU-9) ([2]; vehicle vs. NU-9 100 mg/kg/day, P88): -11.7
Rotarod, Mean Diff. (vehicle minus NU-9) ([2]; vehicle vs. NU-9 100 mg/kg/day, P95): 11.37
Rotarod, Mean Diff. (vehicle minus NU-9) ([2]; vehicle vs. NU-9 100 mg/kg/day, P102): 11.61
Rotarod, Mean Diff. (vehicle minus NU-9) ([2]; vehicle vs. NU-9 100 mg/kg/day, P109): 16.57
Rotarod, Mean Diff. (vehicle minus NU-9) ([2]; vehicle vs. NU-9 100 mg/kg/day, P116): -6.407
Rotarod, Average ([2]; NU-9 20 mg/kg/day po, P60): 221.333 s
Rotarod, Average ([2]; NU-9 20 mg/kg/day po, P67): 221.619 s
Rotarod, Average ([2]; NU-9 20 mg/kg/day po, P74): 213.619 s
Rotarod, Average ([2]; NU-9 20 mg/kg/day po, P81): 207.429 s
Rotarod, Average ([2]; NU-9 20 mg/kg/day po, P88): 209.524 s
Rotarod, Average ([2]; NU-9 20 mg/kg/day po, P95): 178.81 s
Rotarod, Average ([2]; NU-9 20 mg/kg/day po, P102): 158.81 s
Rotarod, Average ([2]; NU-9 20 mg/kg/day po, P109): 149.095 s
Rotarod, Average ([2]; NU-9 20 mg/kg/day po, P116): 107.667 s
Rotarod, Average ([2]; NU-9 100 mg/kg/day po, P60): 206.815 s
Rotarod, Average ([2]; NU-9 100 mg/kg/day po, P67): 223.074 s
Rotarod, Average ([2]; NU-9 100 mg/kg/day po, P74): 223.963 s
Rotarod, Average ([2]; NU-9 100 mg/kg/day po, P81): 223.444 s
Rotarod, Average ([2]; NU-9 100 mg/kg/day po, P88): 203.815 s
Rotarod, Average ([2]; NU-9 100 mg/kg/day po, P95): 190.963 s
Rotarod, Average ([2]; NU-9 100 mg/kg/day po, P102): 170 s
Rotarod, Average ([2]; NU-9 100 mg/kg/day po, P109): 151.259 s
Rotarod, Average ([2]; NU-9 100 mg/kg/day po, P116): 128.519 s
rotarod performance ([2]; hSOD1^G93A‐UeGFP mice, regardless of dose (20 or 100 mg/kg/day)): did not result in significant improvement
Solubility (aqueous) [3]: ≥ 100 µM and ≥ 37 µg/ml
